Experimental data: patent US10800788B2, “4-(aryl)-N-(3-alkoxyfuro[2,3-b]pyrazin-2-yl)-piperazine-1-carboxamide derivative and antiproliferative effect thereof” (Dongguk University Industry-Academic Cooperation Foundation, priority 2016, dated 2020)

Experiments:
[1] = system: HN31 (head and neck cancer) cell line; test: Cell growth inhibition experiment (SRB), HN31; format: cell-based, human; conditions: Homo sapiens, 96 h, 96 hours incubation
In short: (§1)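 Cells in DMEM with 10% FBS were seeded at 2 to 3×10^3 cells/well, dosed the next day and incubated 96 hours at 37° C, 5% CO2. After TCA fixation and sulforhodamine B staining, OD530 was converted to viable cell number with a per-line standard curve. % survival is test over control; triplicate runs.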

[2] = system: MDA-MB-231 (breast cancer) cell line; test: Cell growth inhibition experiment (SRB), MDA-MB-231; format: cell-based, human; conditions: Homo sapiens, MDA-MB-231, 96 h, 96 hours incubation
In short: as §1

HEK293 = test: Cell growth inhibition experiment (SRB), HEK293; format: cell-based, human; conditions: Homo sapiens, HEK293, 96 h, 96 hours incubation, read-out: IC50 (μM) for cancer cell line HEK293
In short: (§2)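 Cells seeded at 2 to 3×10^3 cells/well, grown overnight, then exposed to compound for 96 hours in triplicate. Growth measured by SRB staining with absorbance at 530 nm; OD530 converted to viable cell number via each line's standard curve, survival expressed relative to untreated control.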

A549 = test: Cell growth inhibition experiment (SRB), A549; format: cell-based; conditions: Homo sapiens, A549, 96 h, 96 hours incubation, read-out: IC50 (μM) for cancer cell line A549
In short: as §2

HUVEC = test: Cell growth inhibition experiment (SRB), HUVEC; format: cell-based, human; conditions: Homo sapiens, HUVEC, 96 h, 96 hours incubation, read-out: IC50 (μM) […]
In short: as §2

HT29 = test: Cell growth inhibition experiment (SRB), HT29; format: cell-based, human; conditions: Homo sapiens, HT-29, 96 h, 96 hours incubation, read-out: IC50 (μM) for cancer cell line HT29
In short: as §2

SK-OV-3 = test: Cell growth inhibition experiment (SRB), SK-OV-3; format: cell-based, human; conditions: Homo sapiens, SK-OV-3, 96 h, 96 hours incubation, read-out: IC50 (μM) for cancer cell line SK-OV-3
In short: as §2

[3] = system: PANC-1 (pancreatic cancer) cell line; test: Cell growth inhibition experiment (SRB), PANC-1; format: cell-based; conditions: Homo sapiens, PANC-1, 96 h, 96 hours incubation
In short: as §1

[4] = system: UMRC2 (kidney cancer) cell line; test: Cell growth inhibition experiment (SRB), UMRC2; format: cell-based, human; conditions: Homo sapiens, UMRC2, 96 h, 96 hours incubation
In short: as §1

Row | Structure (SMILES) | IC50 [1] [µM] | IC50 [2] [µM] | IC50 (HEK293) [µM] | IC50 (A549) [µM] | IC50 (HUVEC) [µM] | IC50 (HT29) [µM] | IC50 (SK-OV-3) [µM] | IC50 [3] [µM] | IC50 [4] [µM]
1 | CCOc1nc2oc(C)cc2nc1NC(=O)N1CCN(c2cc(C)cc(F)c2)CC1 [Example 36, N-(3-Ethoxy-6-methylfuro[2,3-b]pyrazin-2-yl)-4-(3-fluoro-5-methylphenyl)piperazine-1-carboxamide] | 0.36 | 0.45 | 1.32 | 1.32 | 1.12 | 1.12 | 1.12 | 0.12 | 0.36
2 | CCOc1nc2oc(C)cc2nc1NC(=O)N1CCN(c2cc(F)cc(F)c2)CC1 [Example 37, 4-(3,5-Difluorophenyl)-N-(3-ethoxy-6-methylfuro[2,3-b]pyrazin-2-yl)piperazine-1-carboxamide] | 0.68 | 0.15 | 1.63 | 0.44 | 1.25 | 1.28 | 2.13 | 0.51 | 0.36
3 | COc1cc(C)cc(N2CCN(C(=O)Nc3nc4ccoc4nc3OC)CC2)c1 [Example 2, 4-(3-Methoxy-5-methylphenyl)-N-(3-methoxyfuro[2,3-b]pyrazin-2-yl)piperazine-1-carboxamide] | 0.49 | 0.26 | 1.93 | 0.23 | 0.91 | 0.62 | 0.82 | 0.45 | 0.38
4 | CCOc1nc2oc(C)cc2nc1NC(=O)N1CCN(c2cc(C(F)(F)F)cc(C(F)(F)F)c2)CC1 [Example 39, 4-(3,5-Bis(trifluoromethyl)phenyl)-N-(3-ethoxy-6-methylfuro[2,3-b]pyrazin-2-yl)piperazine-1-carboxamide] | < 2.5 | < 2.5 | < 2.5 | < 2.5 | < 2.5 | < 2.5 | < 2.5 | < 2.5 | < 2.5
5 | CCOc1nc2oc(Cl)cc2nc1NC(=O)N1CCN(c2cc(OC)cc(OC)c2)CC1 [Example 51, N-(6-Chloro-3-ethoxyfuro[2,3-b]pyrazin-2-yl)-4-(3,5-dimethoxyphenyl)piperazine-1-carboxamide] | 1.45 | 0.32 | < 2.5 | < 2.5 | < 2.5 | < 2.5 | < 2.5 | 1.58 | 1.68
6 | CCOc1nc2oc(Cl)cc2nc1NC(=O)N1CCN(c2cc(C)cc(F)c2)CC1 [Example 56, N-(6-Chloro-3-ethoxyfuro[2,3-b]pyrazin-2-yl)-4-(3-fluoro-5-methylphenyl)piperazine-1-carboxamide] | 1.75 | 0.36 | < 2.5 | < 2.5 | < 2.5 | < 2.5 | < 2.5 | 1.68 | 0.87
7 | CCOc1nc2oc(Cl)cc2nc1NC(=O)N1CCN(c2cc(C)cc(C)c2)CC1 [Example 55, N-(6-Chloro-3-ethoxyfuro[2,3-b]pyrazin-2-yl)-4-(3,5-dimethylphenyl)piperazine-1-carboxamide] | 1.75 | 0.32 | < 2.5 | < 2.5 | < 2.5 | < 2.5 | < 2.5 | 1.68 | 0.68
8 | CCOc1nc2oc(C)cc2nc1NC(=O)N1CCN(c2cccc(OC(F)(F)F)c2)CC1 [Example 40, N-(3-Ethoxy-6-methylfuro[2,3-b]pyrazin-2-yl)-4-(3-(trifluoromethoxy)phenyl)piperazine-1-carboxamide] | < 2.5 | < 2.5 | < 2.5 | < 2.5 | < 2.5 | < 2.5 | < 2.5 | < 2.5 | < 2.5
9 | COc1nc2occc2nc1NC(=O)N1CCN(c2cc(F)cc(F)c2)CC1 [Example 7, 4-(3,5-difluorophenyl)-N-(3-methoxyfuro[2,3-b]pyrazin-2-yl)piperazine-1-carboxamide] | < 2.5 | 1.78 | < 2.5 | < 2.5 | < 2.5 | < 2.5 | < 2.5 | 1.89 | 1.78
10 | COc1nc2oc(Cl)cc2nc1NC(=O)N1CCN(c2cc(C)cc(C)c2)CC1 [Example 45, N-(6-Chloro-3-methoxyfuro[2,3-b]pyrazin-2-yl)-4-(3,5-dimethylphenyl)piperazine-1-carboxamide] | 1.68 | 0.69 | 2.01 | 1.81 | < 2.5 | < 2.5 | < 2.5 | 0.68 | 0.32
11 | COc1nc2oc(C)cc2nc1NC(=O)N1CCN(c2cccc(OC(F)(F)F)c2)CC1 [Example 30, N-(3-Methoxy-6-methylfuro[2,3-b]pyrazin-2-yl)-4-(3-(trifluoromethoxy)phenyl)piperazine-1-carboxamide] | 1.32 | 0.68 | 0.58 | 0.25 | 1.12 | 1.12 | 1.12 | 0.54 | 0.63
12 | COc1nc2oc(C)cc2nc1NC(=O)N1CCN(c2cc(F)cc(C(F)(F)F)c2)CC1 [Example 28, 4-(3-Fluoro-5-(trifluoromethyl)phenyl)-N-(3-methoxy-6-methylfuro[2,3-b]pyrazin-2-yl)piperazine-1-carboxamide] | < 2.5 | < 2.5 | < 2.5 | < 2.5 | < 2.5 | < 2.5 | < 2.5 | < 2.5 | < 2.5
13 | CCOc1nc2occc2nc1NC(=O)N1CCN(c2cc(F)cc(OC)c2)CC1 [Example 13, N-(3-Ethoxyfuro[2,3-b]pyrazin-2-yl)-4-(3-fluoro-5-methoxyphenyl)piperazine-1-carboxamide] | 0.72 | 0.16 | < 2.5 | < 2.5 | < 2.5 | < 2.5 | < 2.5 | 0.65 | 0.26
14 | CCOc1nc2occc2nc1NC(=O)N1CCN(c2cc(F)cc(F)c2)CC1 [Example 17, 4-(3,5-Difluorophenyl)-N-(3-ethoxyfuro[2,3-b]pyrazin-2-yl)piperazine-1-carboxamide] | < 2.5 | 0.24 | < 2.5 | < 2.5 | < 2.5 | < 2.5 | < 2.5 | < 2.5 | 1.65
15 | CCOc1nc2oc(Cl)cc2nc1NC(=O)N1CCN(c2cc(F)cc(F)c2)CC1 [Example 57, N-(6-Chloro-3-ethoxyfuro[2,3-b]pyrazin-2-yl)-4-(3,5-difluorophenyl)piperazine-1-carboxamide] | < 2.5 | < 2.5 | < 2.5 | < 2.5 | < 2.5 | < 2.5 | < 2.5 | < 2.5 | < 2.5
16 | COc1cc(OC)cc(N2CCN(C(=O)Nc3nc4cc(Cl)oc4nc3OC)CC2)c1 [Example 41, N-(6-Chloro-3-methoxyfuro[2,3-b]pyrazin-2-yl)-4-(3,5-dimethoxyphenyl)piperazine-1-carboxamide] | 0.68 | 0.51 | 1.66 | 1.87 | 1.73 | 1.87 | < 2.5 | 0.36 | 0.32
17 | CCOc1nc2oc(C)cc2nc1NC(=O)N1CCN(c2cc(OC)cc(OC)c2)CC1 [Example 31, 4-(3,5-Dimethoxyphenyl)-N-(3-ethoxy-6-methylfuro[2,3-b]pyrazin-2-yl)piperazine-1-carboxamide] | 1.63 | 0.12 | < 2.5 | 1.25 | < 2.5 | < 2.5 | < 2.5 | 0.44 | 0.36
18 | CCOc1nc2oc(C)cc2nc1NC(=O)N1CCN(c2cc(OC)cc(OCCN(C)C)c2)CC1 [Example 34, 4-(3-(2-(Dimethylamino)ethoxy)-5-methoxyphenyl)-N-(3-ethoxy-6-methylfuro[2,3-b]pyrazin-2-yl)piperazine-1-carboxamide] | 1.02 | 0.36 | 0.44 | 0.68 | < 2.5 | < 2.5 | < 2.5 | 0.44 | 1.21
19 | COc1cc(OC)cc(N2CCN(C(=O)Nc3nc4ccoc4nc3OC)CC2)c1 [Example 1, 4-(3,5-Dimethoxyphenyl)-N-(3-methoxyfuro[2,3-b]pyrazin-2-yl)piperazine-1-carboxamide] | 0.27 | 0.12 | 0.63 | 1.13 | 0.12 | 0.31 | 0.27 | 0.53 | 0.03
